According to patent US11931403B2, “Compositions, systems, and methods for treating or reducing hypoxia-ischemia induced brain damage and neurobehavioral dysfunction in neonates” (UNIVERSITY OF MISSISSIPPI MEDICAL CENTER, priority 2019, dated 2024):

How the values were obtained:
[1] = set-up: species or system Sprague-Dawley rats; settings: rat, in vivo
Description: Another set of animals were prepared for ELISA study. […] Total proteins were extracted using protein lysis buffer (Invitrogen).
Ex vivo whole brain and spinal cord imaging using live imaging devices (IVIS Spectrum imaging system) was performed to provide an accurate picture of the overall bio-distribution of fluorescent labeling insulin. […] To accurately assess bio-distribution of intranasal insulin, all tissues of interest were analyzed by ELISA.

neonatal pig model of HI = settings: IV, to prevent hyperglycemia during glucose infusion before HI injury; cited from earlier work
[2] = test system: neonatal piglet model of HI; settings: bolus injection followed by continuous infusion, continued during HI exposure; cited from earlier work

## Alexa 546-labeled insulin: fluorescent Alexa 546-labeled insulin (Nanocs Inc) used to study distribution in brain after intranasal application
[1]
  Delivery to the central nervous system (fluorescence imaging): delivered to the central nervous system at 15 minutes

## regular porcine insulin: IV regular porcine insulin used by LeBlanc et al. in a neonatal pig model of HI
Neonatal pig model of HI
  Outcome of piglets in the insulin group: fared slightly better

## regular insulin: regular insulin bolus and infusion to induce moderate hypoglycemia in a neonatal piglet HI model
[2]
  Brain injury with insulin-induced hypoglycemia: not able to ameliorate brain injury
